Assay results reported in US20110301142A1, “ANTAGONISTS OF LYSOPHOSPHATIDIC ACID RECEPTORS” (priority 2008, published 2011).

Tests used:
human LPA1 = target: T1, human LPA1 (Homo sapiens, UniProt Q92633); experiment: LPA1 calcium flux assay (HLPA1 Ca Flux); assay type: cell-based; conditions: Human LPA1 expressing CHO cells, stimulated with 10 nM LPA
T1 construct: the full-length cDNA for human LPA1 was obtained by PCR of the reverse transcription reaction; expressed in transfected cells
Outline: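 CHO cells stably expressing cloned human LPA1, serum-starved overnight and loaded with Calcium 4 dye, were preincubated 30 min at room temperature with compound. Cells were then challenged with 10 nM LPA and intracellular Ca2+ measured; IC50 values came from titration curves.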

human LPA3 = target: T2, human LPA3 (Homo sapiens, UniProt Q9UBY5); experiment: LPA3 calcium flux assay; assay type: cell-based; conditions: Human LPA3 expressing CHO cells, stimulated with 10 nM LPA; read-out: HLPA3 Ca Flux IC50
T2 construct: The full-length cDNA fragment for human LPA3 was obtained by PCR from the vector; expressed in transfected cells; cDNA from the Missouri S&T cDNA Resource Center
T2 sequence (Q9UBY5 1-353): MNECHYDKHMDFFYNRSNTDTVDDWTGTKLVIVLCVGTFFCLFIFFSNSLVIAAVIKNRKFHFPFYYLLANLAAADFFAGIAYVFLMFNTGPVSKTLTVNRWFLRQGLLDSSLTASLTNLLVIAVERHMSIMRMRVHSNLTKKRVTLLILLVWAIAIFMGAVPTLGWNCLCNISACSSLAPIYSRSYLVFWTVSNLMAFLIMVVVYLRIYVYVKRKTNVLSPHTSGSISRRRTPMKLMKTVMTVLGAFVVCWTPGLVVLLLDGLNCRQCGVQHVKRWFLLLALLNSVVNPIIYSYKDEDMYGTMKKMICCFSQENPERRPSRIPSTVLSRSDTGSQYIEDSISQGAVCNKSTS
Outline: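 Stably transfected CHO cells, serum-starved overnight, loaded with Calcium 4 dye 1 h at 37 °C in HBSS/20 mM Hepes with 0.3% fatty-acid-free HSA. Compounds preincubated 30 min at room temperature, then cells stimulated with 10 nM LPA; intracellular Ca2+ read by fluorescence; IC50 from titration curves.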

T1 sequence (Q92633 whole entry): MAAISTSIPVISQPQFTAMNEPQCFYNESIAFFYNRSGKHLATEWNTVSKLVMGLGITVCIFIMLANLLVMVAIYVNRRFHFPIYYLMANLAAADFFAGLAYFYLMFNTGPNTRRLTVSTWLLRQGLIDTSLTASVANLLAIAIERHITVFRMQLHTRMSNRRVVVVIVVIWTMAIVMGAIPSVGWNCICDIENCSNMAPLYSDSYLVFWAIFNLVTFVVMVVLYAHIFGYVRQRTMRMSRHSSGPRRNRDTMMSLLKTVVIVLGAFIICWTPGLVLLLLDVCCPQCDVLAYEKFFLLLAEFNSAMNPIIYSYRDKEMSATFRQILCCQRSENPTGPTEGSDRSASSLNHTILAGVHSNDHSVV

SMILES	IC50 (human LPA1) [nM]	IC50 (human LPA3) [nM]
Cc1noc(-c2ccc(C3=CCC(C(=O)O)CC3)cc2)c1NC(=O)OC(C)c1ccccc1Cl (stereo not drawn) [Compound 1-66, 4-(4-{4-[1-(2-Chloro-phenyl)-ethoxycarbonylamino]-3-methyl-isoxazol-5-yl}-phenyl)-cyclohex-3-enecarboxylic acid]	< 300	1000 to 50000
Cc1noc(-c2ccc(Cn3cc(C(=O)O)cn3)cc2)c1NC(=O)OC(C)c1ccccc1Cl (stereo not drawn) [Compound 1-9, 1-(4-{4-[1-(2-Chloro-phenyl)-ethoxycarbonylamino]-3-methyl-isoxazol-5-yl}-benzyl)-1H-pyrazole-4-carboxylic acid]	< 300	1000 to 50000
COC(=O)Cc1ccc(-c2ccc(-c3onc(C)c3NC(=O)OC(C)c3ccccc3Cl)cc2)cc1 (stereo not drawn) [Compound 1-69, (4′-{4-[1-(2-Chloro-phenyl)-ethoxycarbonylamino]-3-methyl-isoxazol-5-yl}-biphenyl-4-yl)-acetic acid methyl ester]	< 300	1000 to 50000
Cc1noc(-c2ccc(-c3ccc(CC(=O)O)cc3)cc2)c1NC(=O)OC(C)c1c(F)cccc1F (stereo not drawn) [Compound 1-120, (4′-{4-[1-(2,6-Difluoro-phenyl)-ethoxycarbonylamino]-3-methyl-isoxazol-5-yl}-biphenyl-4-yl)-acetic acid]	< 300	> 50000
Cc1cc(-c2onc(C)c2NC(=O)O[C@H](C)c2ccccc2F)ccc1-c1ccc(CC(=O)O)cc1 [Compound 1-85, (4′-{4-[(R)-1-(2-Fluoro-phenyl)-ethoxycarbonylamino]-3-methyl-isoxazol-5-yl}-2′-methyl-biphenyl-4-yl)-acetic acid]	< 300	1000 to 50000
CCC(C(=O)O)c1ccc(-c2ccc(-c3onc(C)c3NC(=O)O[C@H](C)c3ccccc3)cn2)cc1 (stereo partly drawn) [Compound 1-142]	< 300	1000 to 50000
Cc1noc(-c2ccc(-c3ccc(CC(=O)O)cc3)cc2Cl)c1NC(=O)O[C@H](C)c1ccccc1Cl [Compound 1-129, (3′-Chloro-4′-{4-[(R)-1-(2-chloro-phenyl)-ethoxycarbonylamino]-3-methyl-isoxazol-5-yl}-biphenyl-4-yl)-acetic acid]	< 300	1000 to 50000
Cc1noc(-c2ccc(COc3ccccc3CC(=O)O)cc2)c1NC(=O)OC(C)c1ccccc1Cl (stereo not drawn) [Compound 1-79, [2-(4-{4-[1-(2-Chloro-phenyl)-ethoxycarbonylamino]-3-methyl-isoxazol-5-yl}-benzyloxy)-phenyl]-acetic acid]	< 300	1000 to 50000
Cc1noc(-c2ccc(-c3ccc(CC(=O)O)cc3)cc2)c1NC(=O)O[C@@H](C)c1ccccc1Cl [Compound 1-112, (4′-{4-[(S)-1-(2-Chloro-phenyl)-ethoxycarbonylamino]-3-methyl-isoxazol-5-yl}-biphenyl-4-yl)-acetic acid]	300 to 1000	1000 to 50000
Cc1noc(-c2ccc(-c3ccc(C(C)C(=O)O)cc3)cc2)c1NC(=O)O[C@H](C)c1ccccc1Cl (single isomer, unassigned) [Compound 1-128]	< 300	1000 to 50000
Cc1noc(-c2ccc(-c3nc(C(=O)O)cs3)cc2)c1NC(=O)OC(C)c1ccccc1Cl (stereo not drawn) [Compound 1-93, 2-(4-{4-[1-(2-Chloro-phenyl)-ethoxycarbonylamino]-3-methyl-isoxazol-5-yl}-phenyl)-thiazole-4-carboxylic acid]	< 300	1000 to 50000
Cc1noc(-c2ccc(-c3ccc(CC(=O)O)cc3)cc2)c1NC(=O)OC(C)c1ccc(Cl)cc1F (stereo not drawn) [Compound 1-77, (4′-{4-[1-(4-Chloro-2-fluoro-phenyl)-ethoxycarbonylamino]-3-methyl-isoxazol-5-yl}-biphenyl-4-yl)-acetic acid]	< 300	1000 to 50000
Cc1noc(-c2ccc(-c3ccc(CC#N)cc3)cc2)c1NC(=O)O[C@H](C)c1ccccc1F [Compound 2-3, [5-(4′-Cyanomethyl-biphenyl-4-yl)-3-methyl-isoxazol-4-yl]-carbamic acid (R)-1-(2-fluoro-phenyl)-ethyl ester]	< 300	> 50000
Cc1noc(-c2ccc(-c3ccc(CC(=O)O)cc3)cc2)c1NC(=O)OC(C)c1ccc(F)cc1F (stereo not drawn) [Compound 1-117, (4′-{4-[1-(2,4-Difluoro-phenyl)-ethoxycarbonylamino]-3-methyl-isoxazol-5-yl}-biphenyl-4-yl)-acetic acid]	< 300	1000 to 50000
Cc1noc(-c2ccc(CSc3ccccc3CC(=O)O)cc2)c1NC(=O)OC(C)c1ccccc1Cl (stereo not drawn) [Compound 1-19, [2-(4-{4-[1-(2-Chloro-phenyl)-ethoxycarbonylamino]-3-methyl-isoxazol-5-yl}-benzylsulfanyl)-phenyl]acetic acid]	< 300	1000 to 50000
Cc1noc(-c2ccc(-c3ccc(C(C)(C)C(=O)O)cn3)cc2)c1NC(=O)OC(C)c1ccccc1F (stereo not drawn) [Compound 1-87, 2-[6-(4-{4-[1-(2-Fluoro-phenyl)-ethoxycarbonylamino]-3-methyl-isoxazol-5-yl}-phenyl)-pyridin-3-yl]-2-methyl-propionic acid]	< 300	1000 to 50000
Cc1noc(-c2ccc(-c3ccc(CC(=O)O)cc3)cc2)c1NC(=O)OC(C)c1ccc(Cl)cc1Cl (stereo not drawn) [Compound 1-25, (4′-{4-[1-(2,4-Dichloro-phenyl)-ethoxycarbonylamino]-3-methyl-isoxazol-5-yl}-biphenyl-4-yl)-acetic acid]	< 300	1000 to 50000
COc1ccc(CC(=O)O)cc1-c1ccc(-c2onc(C)c2NC(=O)OC(C)c2ccccc2Cl)cc1 (stereo not drawn) [Compound 1-49, (4′-{4-[1-(2-Chloro-phenyl)-ethoxycarbonylamino]-3-methyl-isoxazol-5-yl}-6-methoxy-biphenyl-3-yl)-acetic acid]	300 to 1000	1000 to 50000
COc1ccc(CC(=O)O)cc1-c1cccc(-c2onc(C)c2NC(=O)OC(C)c2ccccc2Cl)c1 (stereo not drawn) [Compound 1-30, (3′-{4-[1-(2-Chloro-phenyl)-ethoxycarbonylamino]-3-methyl-isoxazol-5-yl}-6-methoxy-biphenyl-3-yl)-acetic acid]	300 to 1000	1000 to 50000
Cc1noc(-c2ccc(-c3ccc(C(C)(C)C(=O)O)cc3)cc2)c1NC(=O)O[C@H](C)c1ccccc1F [Compound 1-90, 2-(4′-{4-[(R)-1-(2-Fluoro-phenyl)-ethoxycarbonylamino]-3-methyl-isoxazol-5-yl}-biphenyl-4-yl)-2-methyl-propionic acid]	< 300	1000 to 50000
Cc1noc(-c2ccc(-c3ccc(CC(=O)O)cc3)c(F)c2)c1NC(=O)O[C@H](C)c1ccccc1Cl [Compound 1-132, (4′-{4-[(R)-1-(2-Chloro-phenyl)-ethoxycarbonylamino]-3-methyl-isoxazol-5-yl}-2′-fluoro-biphenyl-4-yl)-acetic acid]	< 300	1000 to 50000
Cc1noc(-c2ccc(Cc3cccc(CC(=O)O)c3)cc2)c1NC(=O)O[C@H](C)c1ccccc1F [Compound 1-80, [3-(4-{4-[(R)-1-(2-Fluoro-phenyl)-ethoxycarbonylamino]-3-methyl-isoxazol-5-yl}-benzyl)-phenyl]acetic acid]	< 300	1000 to 50000
Cc1noc(-c2ccc(-c3ccc(CC(=O)O)cc3)cc2)c1NC(=O)OC(C)c1ccccc1F (stereo not drawn) [Compound 1-26, (4′-{4-[1-(2-Fluoro-phenyl)-ethoxycarbonylamino]-3-methyl-isoxazol-5-yl}-biphenyl-4-yl)-acetic acid]	< 300	1000 to 50000
Cc1noc(-c2ccc(-c3ccc(C(=O)O)nc3)cc2)c1NC(=O)OC(C)c1ccccc1Cl (stereo not drawn) [Compound 1-56, 5-(4-{4-[1-(2-Chloro-phenyl)-ethoxycarbonylamino]-3-methyl-isoxazol-5-yl}-phenyl)-pyridine-2-carboxylic acid]	< 300	1000 to 50000
Cc1noc(-c2ccc(Oc3ccc(CC(=O)O)cc3)cc2)c1NC(=O)O[C@H](C)c1ccccc1Cl [Compound 1-138, [4-(4-{4-[(R)-1-(2-Chloro-phenyl)-ethoxycarbonylamino]-3-methyl-isoxazol-5-yl}-phenoxy)-phenyl]-acetic acid]	< 300	300 to 1000
Cc1noc(-c2cccc(-c3cccc(CC(=O)O)c3)c2)c1NC(=O)OC(C)c1ccccc1Cl (stereo not drawn) [Compound 1-60, (3′-{4-[1-(2-Chloro-phenyl)-ethoxycarbonylamino]-3-methyl-isoxazol-5-yl}-biphenyl-3-yl)-acetic acid]	1000 to 50000	1000 to 50000
COc1ccc(CC(=O)O)cc1Cc1ccc(-c2onc(C)c2NC(=O)OC(C)c2ccccc2Cl)cc1 (stereo not drawn) [Compound 1-7, [3-(4-{4-[1-(2-Chloro-phenyl)-ethoxycarbonylamino]-3-methyl-isoxazol-5-yl}-benzyl)-4-methoxy-phenyl]-acetic acid]	300 to 1000	1000 to 50000
